# Assay results from patent US9821010B2, “Methods for expansion or depletion of T-regulatory cells” (The General Hospital Corporation, priority 2013, dated 2017).
# Entries after “also recorded” stand apart in the source; their conditions may differ.
# Columns and labels:
# [1] = tested on: freshly isolated human CD4+ cells; test: FOXP3 induction by TNF-α in freshly isolated human CD4+ cells; format: cell-based
# Protocol: I cultured freshly isolated human CD4+ cells from 14 human subjects only with TNF-α for 16 hours (FIG. 1B). […] IL-2 is important for Tregs induction and maintenance in mice. […] Thus, the data in FIGS. 1B and 1C confirm that TNF-α […] in vitro.
# expanded CD4+CD25+ cells = test: Intracellular cytokine production of expanded Tregs after PMA and ionomycin; format: cell-based, human; settings: PMA and ionomycin 24 hours; Tregs expanded with rapamycin
# Protocol: Expanded CD4^+CD25^+ cells were stimulated with phorbol myristate acetate (PMA) (2 ng/ml) and ionomycin (500 ng/ml) (Sigma) for 24 hours. Monensin (GolgiStop, BD Biosciences) was added for the last 4 hours of incubation. Cells were fixed and permeabilized using Human FOXP3 Buffer Set, followed by staining with fluorochrome-conjugated IFNγ and IL-10 mAbs.
# One of the reasons for these Tregs showing high suppression capacity over CD8+ T cells may be due to Tregs lacking the ability to produce IFNγ.
# [2] = tested on: CD25+FOXP3− cell population; test: Overnight incubation of CD4+ cells with IL-2: CD25+FOXP3- cell population; format: cell-based, human; settings: overnight incubation with IL-2
# Protocol: Despite high expression of TNFR2 on Tregs, some TNFR2 expression is also observable on CD4+ T cells that are not true Tregs because they only express intermediate levels of CD25, i.e., CD4^+CD25^mid cells. I therefore studied the impact of overnight incubation on CD25^mid cell subpopulations of IL-2 alone, IL-2 and TNF-α, or IL-2 and TNFR2 agonist, or IL-2 and TNFR2 antagonist. […] However, I observed suppression with IL-2 and TNFR2 antagonist relative to the other three groups.
# [3] = co-incubation with IL-2, compared to IL-2 alone
substance,measurement,setting,value
TNF-α,induction of Tregs (inducible FOXP3),"[1]; TNF-α alone, 16 hours, 14 subjects",no induction of Tregs; also recorded: does not induce FOXP3
same,induction of Tregs (inducible FOXP3),[1]; [3],significant increase in Tregs over IL-2 alone; also recorded: does induce it to higher levels
same,percentage of CD4+CD25hi FOXP3 cells (flow cytometry),[1]; [3],increased the percentage of CD4+CD25^hi FOXP3 cells; also recorded: greater intracellular induction of FOXP3
same,percentage of IFNγ+ cells / IFNγ production,expanded CD4+CD25+ cells,lowest percentages of IFNγ+ cells
same,proportion of CD25hiFOXP3− cells,[2],rise in the proportion of CD25^hiFOXP3^− cells
same,proportion of CD25hiFOXP3− cells,[2]; listed as TNF,Significant percentage increases
